# Entries after “also recorded” stand apart in the source; their conditions may differ.
# Assays:
# HCC1806 cells = test: cells; assay type: cell-based, human; conditions: breast cancer; MTT, 48 h, 37 °C; RPMI-1640 + 10% FBS; 2,500 cells/well; absorbance 570 nm; n = 3 biologically independent
# Description: (§1) An MTT (2-(4,5-dimethylthiazol-2-yl)−2,5-diphenyltetrazolium bromide) assay was used to determine the cytotoxicity of lapcin towards diverse cancer cell lines. Lapcin was dissolved in DMSO to make a 3.2 mg/mL working solution. For each cancer line detailed in Supplementary Table 5, cells at 80-90% confluency were counted and seeded in 96-well, flat bottom microplates and incubated at 37 °C with a 5% CO2 atmosphere. Outer wells were unused to avoid edge effects. After adhering for 24 h, the medium was sterilely aspirated and replaced with 100 µL of fresh medium containing lapcin or a control compound serially diluted at concentrations ranging from 8,000 to 0.00382 ng/mL. After 48 h (37 °C, 5% CO2), the medium was carefully removed and 110 µL of freshly prepared MTT solution (10 µL of 5 mg/mL MTT in PBS (pH 7.4) premixed with 100 µL of complete medium) was added to each well. After 3 h at 37 °C with 5% CO2, 100 µL of solubilization solution (40% DMF, 16% SDS and 2% acetic acid in H2O) was added to each well and precipitated formazan crystals were allowed to dissolve for 4 h. The absorbance of each well was then measured at 570 nm using a Tecan microplate reader.
# Colo205 cells = test: cells; assay type: cell-based, human; conditions: colon cancer; MTT, 48 h, 37 °C; RPMI-1640 + 10% FBS; 2,500 cells/well; absorbance 570 nm; n = 3 biologically independent
# Description: as §1
# HEK293 cells = test: cells; assay type: cell-based, human; conditions: normal cell; MTT, 48 h, 37 °C; DMEM + 10% FBS; 5, 000 cells/well; absorbance 570 nm; n = 3 biologically independent
# Description: as §1
# SW480 cells = test: cells; assay type: cell-based, human; conditions: colon cancer; MTT, 48 h, 37 °C; DMEM + 10% FBS; 10,000 cells/well; absorbance 570 nm; n = 3 biologically independent
# Description: as §1
# HCT116 cells = test: cells; assay type: cell-based, human; conditions: colon cancer; MTT, 48 h, 37 °C; DMEM + 10% FBS; 10,000 cells/well; absorbance 570 nm; n = 3 biologically independent
# Description: as §1
# NCI-H226 cells = test: cells; assay type: cell-based, human
# Description: as §1
# Topo II = test: Enzyme concentration dependence, Topo II activity assay; assay type: biochemical; conditions: unlike known DNA intercalators; Supplementary Fig. 38
# human cancer cell lines = test: MTT cell viability assay, whole cell line panel; assay type: cell-based
# Description: as §1
# [1] = test system: human topoisomerase II alpha; test: Topoisomerase II DNA cleavage assay; assay type: biochemical; conditions: supercoil pBR322, ATP, 30 min, 37 °C; linear DNA; two independent times
# Description: Topoisomerase I/II cleavage assay: A commercial Human topoisomerase cleavage assay kit (Inspiralis, UK) was used in this study with a slight modification. Camptothecin (Sigma, USA) and Etoposide (Sigma, USA) were used as the positive control for topoisomerase I cleavage assay and topoisomerase II cleavage assay, respectively. The assay was performed according to the manufacture’s protocol. Briefly, 29 µL of the master mixture was prepared by adding 3 µL of 10 x assay buffer, 1 µL of 1 µg/µL supercoil pBR322, 1 µL of 30 mM ATP (only used in topoisomerase II cleavage assay), 1.5 µL serial diluted compounds (dissolved in DMSO) and H2O. Finally, 1 µL of 10 U/µL human topoisomerase I/II alpha was added to the reaction mixture. The reaction was incubated for 30 minutes at 37℃. After incubation, 3 µL of 2% (w/v) SDS and 1.5 µL of 10 mg/mL proteinase K was added. The reaction was mixed briefly and incubated for another 30 minutes at 37 ℃. The reaction was stopped by added 10 µL of H2O, 40 µL of STEB stop buffer and 40 µL of Chloroform/isoamyl alcohol (v:v, 24:1). The mixture was vortexed vigorously for 10 secs and centrifuged for 2 minutes. 20 µL of aqueous phase was loaded onto 1% (w/v) agarose gel and separated at 80 V for 2 hours in 0.5% TBE buffer. […]
# [2] = test system: Candida albicans ATCC76485; test: MIC assay, Candida albicans; assay type: cell-based; conditions: YPD, 16 h, n = 2
# Description: (§2) Lapcin was tested for antimicrobial activity against the bacteria and fungi shown in Supplementary Table 4. […] Lapcin was dissolved in sterile DMSO to make a 3.2 mg/mL working solution. Lapcin was diluted across 96-well plates using a 2-fold serial dilution method to give a concentration range of 64 to 0.06 µg/mL in 50 µL of LB broth. A single colony of each test organism was grown in either 5 mL LB (bacteria) or YPD (fungi) medium overnight at 37 °C or 30 °C, respectively. Saturated overnight cultures were diluted 5,000-fold, and then 50 µL of dilute cells were transferred into each well of the assay plates. Finally, each well contains a total volume of 100 µL.
# [3] = test system: diverse microbial pathogens; test: Antimicrobial/antifungal susceptibility, whole panel; assay type: cell-based; conditions: at the highest concentration tested
# Description: Lapcin was tested for antimicrobial activity against the bacteria and fungi shown in Supplementary Table 4. […] Ciprofloxacin (Sigma, USA) and Nystatin (Sigma, USA) were used as positive control for bacteria and fungi, respectively. Lapcin was dissolved in sterile DMSO to make a 3.2 mg/mL working solution. Lapcin was diluted across 96-well plates using a 2-fold serial dilution method to give a concentration range of 64 to 0.06 µg/mL in 50 µL of LB broth. A single colony of each test organism was grown in either 5 mL LB (bacteria) or YPD (fungi) medium overnight at 37 °C or 30 °C, respectively. Saturated overnight cultures were diluted 5,000-fold, and then 50 µL of dilute cells were transferred into each well of the assay plates. Finally, each well contains a total volume of 100 µL.
# [4] = test system: Escherichia coli ATCC25922; test: MIC assay, Escherichia coli; assay type: cell-based; conditions: LB, 16 h, 37 °C, n = 2
# Description: as §2
# [5] = test system: Klebsiella pneumonia ATCC10031; conditions: LB, 16 h, 37 °C, n = 2
# Description: as §2
# [6] = test system: Acinetobacter baumannii ATCC17978; conditions: LB, 16 h, 37 °C, n = 2
# Description: as §2
# [7] = test system: Enterobacter cloacae ATCC13047; conditions: LB, 16 h, 37 °C, n = 2
# Description: as §2
compound,measurement,setting,value
"CCCCCCCCCCCC(O)CC(=O)N[C@@H](C)C(=O)N[C@@H](CO)C(=O)N[C@@H](C)C(=O)Nc1ccc(-c2nc(-c3nc(C(=O)N[C@@H](CC(N)=O)C(=O)Nc4ccc(C(=O)Nc5ccc(C(=O)Nc6ccc(C(=O)O)cc6)c(O)c5OC(C)C)cc4)cs3)cs2)cc1 (stereo partly drawn) [Lapcin, 4-(4-(4-((2S)-4-amino-2-(2'-(4-((2S)-2-((2S)-3-hydroxy-2-((2S)-2-(3-hydroxytetradecanamido)propanamido)propanamido)propanamido)phenyl)-[2,4'-bithiazole]-4-carboxamido)-4-oxobutanamido)benzamido)-2-hydroxy-3-isopropoxybenzamido)benzoic acid]",IC50,HCC1806 cells,212 nM
same,IC50,Colo205 cells,0.504 nM
same,IC50,HEK293 cells,48.4 nM
same,IC50,SW480 cells,37.2 nM
same,IC50,HCT116 cells,923 nM
same,"potency vs etoposide, NCI-H226",NCI-H226 cells; compared with etoposide,essentially equipotent
same,IC50,"NCI-H226 cells; lung cancer, MTT, 48 h, 37 °C, RPMI-1640 + 10% FBS, 10,000 cells/well, absorbance 570 nm, n = 3 biologically independent",241 nM
same,"dependence of activity on enzyme concentration, Topo II",Topo II,strong dependence on enzyme concentration
same,difference in IC50 between non-cancerous HEK293 and most susceptible cell lines,"human cancer cell lines; Table 1 IC50s, therapeutic window",over 3 orders of magnitude
same,potency relative to etoposide in cell lines,human cancer cell lines; all cell lines except NCI-H226,more potent than the topoisomerase II inhibitor etoposide
same,cytotoxic potency (IC50) in words,"human cancer cell lines; breast, lung, colon, bone and cervical cancer cell lines, MTT, 48 h",nM to pM IC50s; also recorded: potent human cancer cell line toxin; also recorded: nM to pM (IC50) inhibitor
same,potency relative to camptothecin in cell lines,"human cancer cell lines; exception of HCT116, HCC1806 and NCI-H226",more potent than the topoisomerase I inhibitor camptothecin
same,correlation of activity with p53 expression,human cancer cell lines; reported p53 expression levels of the cell lines tested,general correlation between lapcin activity and reported p53 expression levels
same,"accumulation of cleavage product, Topo II",[1],did not observe the accumulation of a cleavage product
same,"MIC, Candida albicans",[2],> 32 µg/mL
same,antimicrobial or antifungal activity,[3],no antimicrobial or antifungal activity
same,"MIC, Escherichia coli",[4],> 32 µg/mL
same,"MIC, Klebsiella pneumonia",[5],> 32 µg/mL
same,"MIC, Acinetobacter baumannii",[6],> 32 µg/mL
same,"MIC, Enterobacter cloacae",[7],> 32 µg/mL
